Each molecule was assayed against T1, butyrylcholinesterase (BuChE) (Equus caballus, UniProt P81908) (assay: biochemical). Settings: not given.
T1 construct: butyrylcholinesterase (E.C. 3.1.1.8) from equine serum; purchased Sigma–Aldrich (Steinheim, Germany); host or cells: equine serum
Procedure: Acetylcholinesterase (E.C.3.1.1.7) (Type VI-S from electric eel and recombinant human enzyme) and butyrylcholinesterase (E.C. 3.1.1.8) from equine serum were purchased from Sigma–Aldrich (Steinheim, Germany). All of the materials used in the synthesis were purchased from Merck or Sigma–Aldrich (St. Louis, MO, USA) (Darmstadt, Germany). The ^1H NMR and ^13C NMR spectra in DMSO-d6 were recorded using a Bruker operating at 600 and 150 MHz digital FT-NMR spectrometer (Billerica, MA, USA, Bioscience, Bruker). The NMR spectra’s splitting patterns were recognized and categorized as doublet (d), singlet (s), double doublet (dd), multiplet (m) and triplet (t). In hertz, the coupling constants (J) are given (Hz). Mass spectra were captured on a Shimadzu LCMS-IT-TOF system (Kyoto, Japan) using the electrospray ionization (ESI) method. Using thin-layer chromatography and silica gel 60 F254 to test the purity of synthesized compounds (Darmstadt, Germany, Merck, KGaA).
The inhibition of AChE and BChE was determined using a method described earlier. Briefly, the stock solutions (1 mg/mL) of test analogues were prepared using DMSO. The working solutions (1–100 µg/mL) were prepared using serial dilutions (a serial dilution means a series of diluted solutions, e.g., 0.1 mg/mL, 0.2 mg/mL and so on; the solutions contained 5% DMSO and 95% water). The various concentrations of test compounds (10 µL) were pre-incubated with sodium phosphate buffer (0.1 M; pH 8.0; 150 µL) and AChE (0.1 U/mL; 20 µL) for 15 min at 25 °C. The reaction was initiated via the addition of DTNB (1 mM; 10 µL) and […] (1 mM; 10 µL). The mixture of reaction was mixed using a cyclomixer and incubated for 10 min at 25 °C. The absorbance was measured using a microplate reader at a 410 nm wavelength against the blank reading containing 10 µL DMSO instead of the test compound (the solution contained 5% DMSO and 95% water).

T1 sequence (P81908 whole entry): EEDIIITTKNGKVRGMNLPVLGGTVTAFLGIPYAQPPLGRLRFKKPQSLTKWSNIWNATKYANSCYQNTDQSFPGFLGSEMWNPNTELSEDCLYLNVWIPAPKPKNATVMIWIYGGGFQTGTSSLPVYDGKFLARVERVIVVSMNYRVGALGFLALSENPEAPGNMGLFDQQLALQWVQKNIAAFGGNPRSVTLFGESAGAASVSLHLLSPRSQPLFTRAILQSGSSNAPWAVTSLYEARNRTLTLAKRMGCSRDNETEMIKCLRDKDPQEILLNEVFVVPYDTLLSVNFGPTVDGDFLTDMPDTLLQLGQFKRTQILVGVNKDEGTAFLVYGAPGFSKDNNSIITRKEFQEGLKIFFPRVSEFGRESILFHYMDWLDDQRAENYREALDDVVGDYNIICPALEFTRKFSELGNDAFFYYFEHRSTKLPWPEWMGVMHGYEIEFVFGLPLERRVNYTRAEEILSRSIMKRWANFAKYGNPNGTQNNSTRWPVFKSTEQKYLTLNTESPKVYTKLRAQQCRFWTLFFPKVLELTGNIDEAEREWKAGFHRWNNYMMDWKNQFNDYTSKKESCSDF

SMILES	IC50 [µM]
O=[N+]([O-])c1ccc(-c2nnc(/N=C(/CSc3nc4ccccc4o3)c3cccc([N+](=O)[O-])c3)o2)cc1 [Compound 1, (E)-2-(Benzo[d]oxazol-2-ylthio)-1-(3-nitrophenyl)-N-(5-(4-nitrophenyl)-1,3,4-oxadiazol-2-yl)ethan-1-imine]	8.9 ± 1.8
O=[N+]([O-])c1cccc(/C(CSc2nc3ccccc3o2)=N\c2nnc(-c3cccc([N+](=O)[O-])c3)o2)c1 [Compound 2, (E)-2-(Benzo[d]oxazol-2-ylthio)-1-(3-nitrophenyl)-N-(5-(3-nitrophenyl)-1,3,4-oxadiazol-2-yl)ethan-1-imine]	7.5 ± 1.2

Same assay, conditions: read-out: BuChE Inhibition IC50 ± SEM

SMILES	IC50 [µM]
O=[N+]([O-])c1cccc(/C(CSc2nc3ccccc3o2)=N\c2nnc(-c3ccc(Cl)cc3Cl)o2)c1 [Compound 3, (E)-2-(Benzo[d]oxazol-2-ylthio)-N-(5-(2,4-dichlorophenyl)-1,3,4-oxadiazol-2-yl)-1-(3-nitrophenyl)ethan-1-imine]	9.2 ± 1.9
O=[N+]([O-])c1cccc(/C(CSc2nc3ccccc3o2)=N\c2nnc(-c3ccc(Cl)cc3)o2)c1 [Compound 4, (E)-2-(Benzo[d]oxazol-2-ylthio)-N-(5-(4-chlorophenyl)-1,3,4-oxadiazol-2-yl)-1-(3-nitrophenyl)ethan-1-imine]	11.9 ± 1.1
CN(C)c1ccc(-c2nnc(/N=C(/CSc3nc4ccccc4o3)c3cccc([N+](=O)[O-])c3)o2)cc1 [Compound 5, (E)-4-(5-((2-(Benzo[d]oxazol-2-ylthio)-1-(3-nitrophenyl)ethylidene)amino)-1,3,4-oxadiazol-2-yl)-N,N-dimethylaniline]	16.6 ± 2.5
Cc1ccc(/C(CSc2nc3ccccc3o2)=N\c2nnc(-c3ccc(OCc4ccccc4)cc3)o2)cc1 [Compound 6, (E)-2-(Benzo[d]oxazol-2-ylthio)-N-(5-(4-(benzyloxy)phenyl)-1,3,4-oxadiazol-2-yl)-1-(p-tolyl)ethan-1-imine]	28.6 ± 3.8
Cc1ccc(/C(CSc2nc3ccccc3o2)=N\c2nnc(-c3cccc([N+](=O)[O-])c3)o2)cc1 [Compound 7, (E)-2-(Benzo[d]oxazol-2-ylthio)-N-(5-(3-nitrophenyl)-1,3,4-oxadiazol-2-yl)-1-(p-tolyl)ethan-1-imine]	15.8 ± 3.1
Cc1ccc(/C(CSc2nc3ccccc3o2)=N\c2nnc(-c3ccc(N(C)C)cc3)o2)cc1 [Compound 8, (E)-4-(5-((2-(Benzo[d]oxazol-2-ylthio)-1-(p-tolyl)ethylidene)amino)-1,3,4-oxadiazol-2-yl)-N,N-dimethylaniline]	24.6 ± 3.8
Cc1ccc(/C(CSc2nc3ccccc3o2)=N\c2nnc(-c3ccc(Cl)cc3Cl)o2)cc1 [Compound 9, (E)-2-(Benzo[d]oxazol-2-ylthio)-N-(5-(2,4-dichlorophenyl)-1,3,4-oxadiazol-2-yl)-1-(p-tolyl)ethan-1-imine]	14.8 ± 2.7
Cc1ccc(/C(CSc2nc3ccccc3o2)=N\c2nnc(-c3ccc([N+](=O)[O-])cc3)o2)cc1 [Compound 10, (E)-2-(Benzo[d]oxazol-2-ylthio)-N-(5-(4-nitrophenyl)-1,3,4-oxadiazol-2-yl)-1-(p-tolyl)ethan-1-imine]	18.5 ± 1.9
Cc1ccc(/C(CSc2nc3ccccc3o2)=N\c2nnc(-c3ccc(Cl)cc3)o2)cc1 [Compound 11, (E)-2-(Benzo[d]oxazol-2-ylthio)-N-(5-(4-chlorophenyl)-1,3,4-oxadiazol-2-yl)-1-(p-tolyl)ethan-1-imine]	12.3 ± 1.5
Cc1ccc(/C(CSc2nc3ccccc3o2)=N\c2nnc(-c3ccc(C=O)cc3)o2)cc1 [Compound 12, (E)-4-(5-((2-(Benzo[d]oxazol-2-ylthio)-1-(p-tolyl)ethylidene)amino)-1,3,4-oxadiazol-2-yl)benzaldehyde]	28.7 ± 3.9
Cc1cccc(/C(CSc2nc3ccccc3o2)=N\c2nnc(-c3ccc(OCc4ccccc4)cc3)o2)c1 [Compound 13, (E)-2-(Benzo[d]oxazol-2-ylthio)-N-(5-(4-(benzyloxy)phenyl)-1,3,4-oxadiazol-2-yl)-1-(m-tolyl)ethan-1-imine]	31.5 ± 4.9
Cc1ccc(/C(CSc2nc3ccccc3o2)=N\c2nnc(-c3ccc4ccccc4c3)o2)cc1 [Compound 14, (E)-2-(Benzo[d]oxazol-2-ylthio)-N-(5-(naphthalen-2-yl)-1,3,4-oxadiazol-2-yl)-1-(p-tolyl)ethan-1-imine]	42.6 ± 6.1
Clc1ccc(/C(CSc2nc3ccccc3o2)=N\c2nnc(-c3ccc(Cl)c(Cl)c3)o2)cc1Cl [Compound 15, (E)-2-(Benzo[d]oxazol-2-ylthio)-1-(3,4-dichlorophenyl)-N-(5-(3,4-dichlorophenyl)-1,3,4-oxadiazol-2-yl)ethan-1-imine]	7.2 ± 2.3
O=[N+]([O-])c1cccc(-c2nnc(/N=C(/CSc3nc4ccccc4o3)c3ccc(Cl)c(Cl)c3)o2)c1 [Compound 16, (E)-2-(Benzo[d]oxazol-2-ylthio)-1-(3,4-dichlorophenyl)-N-(5-(3-nitrophenyl)-1,3,4-oxadiazol-2-yl)ethan-1-imine]	7.6 ± 2.1
Clc1ccc(-c2nnc(/N=C(/CSc3nc4ccccc4o3)c3ccc(Cl)c(Cl)c3)o2)cc1 [Compound 17, (E)-2-(Benzo[d]oxazol-2-ylthio)-N-(5-(4-chlorophenyl)-1,3,4-oxadiazol-2-yl)-1-(3,4-dichlorophenyl)ethan-1-imine]	13.3 ± 3.2
CN(C)c1ccc(-c2nnc(/N=C(/CSc3nc4ccccc4o3)c3ccc(Cl)c(Cl)c3)o2)cc1 [Compound 18, (E)-4-(5-((2-(Benzo[d]oxazol-2-ylthio)-1-(3,4-dichlorophenyl)ethylidene)amino)-1,3,4-oxadiazol-2-yl)-N,N-dimethylaniline]	18.3 ± 3.2
O=[N+]([O-])c1ccc(-c2nnc(/N=C(/CSc3nc4ccccc4o3)c3ccc(Cl)c(Cl)c3)o2)cc1 [Compound 19, (E)-2-(Benzo[d]oxazol-2-ylthio)-1-(3,4-dichlorophenyl)-N-(5-(4-nitrophenyl)-1,3,4-oxadiazol-2-yl)ethan-1-imine]	9.8 ± 2.3

Reference: paper PMC10384982, “Investigation of Novel Benzoxazole-Oxadiazole Derivatives as Effective Anti-Alzheimer’s Agents: In Vitro and In Silico Approaches” (Pharmaceuticals, 2023)
